From patent US8859527B2 (priority 2009, dated 2014)
Where two headings read alike, the source gives them in different places.

How the values were obtained:
[1] = system: human non-small cell lung cancer H460 xenograft tumor; details: for Ending body weight / Tumor weight / Tumor-inhibition rate: 21 days
Method: The test article: the inclusion complex of DPT and SBE-β-CD, the content is 5.05%. Preparation Method: it is dissolved in a proper amount of saline after gentle shaking and the concentration is 0.4 mg/ml (which is the test solution for the 8 mg/kg group); other concentrations are prepared by diluting the stock solution of 0.4 mg/ml to the required concentration with physiological saline.
The control article: Etoposide injection produced by Qilu Pharmaceutical Co., Ltd. the batch number is 8060012EV, specification: 5 ml:0.1 g. Preparation Method: Etoposide injection is a kind of transparent sticky liquid and it is diluted with a proper amount of physiological saline and gently shaken and prepared as a homogeneous solution, and the concentration is 1 mg/ml.
Dosage setting: the high dosage group of DPT is 8 mg/kg, the medium dosage group of DPT is 4 mg/kg and the low dosage group of DPT is 2 mg/kg. The dosage for the positive control group of Etoposide injection is 20 mg/kg.
Experimental animals: source, germline and strain: BALB/c nude mice are provided by the Institute of Experimental Animals, Chinese Academy of Medical Sciences. Age: 35-40 days; body weight: 18-24 g; gender: male.
Transplanted tumor: the transplanted tumor for human nonsmall-cell lung cancer H460 in nude mice, and it is established by inoculating the human nonsmall-cell lung cancer H460 cell line hypodermically in the armpit of nude mice. 2×10^6 cells are inoculated.
Human non-small cell lung cancer H460 cell line in exponential phase of growth is prepared as a cell suspension of 2×10^7/ml under sterile conditions, 0.1 ml thereof is inoculated hypodermically in the right armpit of nude mice. The diameters of the transplanted tumors in the nude mice are measured by a sliding caliper, and the animals are randomly divided into different groups when the tumors grow up to the amount of 100 to 300 mm^3. The antitumor efficacy of the test article is dynamically observed by measuring the diameter of the tumor. The diameters of the tumor are determined once for every two days. The administration volume is 0.4 ml/20 g. The mice are killed 21 days after administration, and the tumors are surgically isolated and weighed. The calculation formula for tumor volume (TV) is as follows: TV=½×a×b^2 Wherein a and b represents for the length and the width, respectively.
The relative tumor volume (RTV) is calculated according to the measured results, and the calculation formula is as follows: RTV=Vt/V0. Wherein V0 is the tumor size measured during grouping and drug administration (d0), Vt is the tumor size in every measurements. The evaluation parameter for antitumor activity is the relative tumor growth rate T/C (%) which is calculated according to the formula as follows:
[formula] TRTV: the treatment group RTV; CRTV: the negative control group: RTV.

human lung cancer A-549 = details: cited from earlier work
[2] = system: BGC-823 (human gastric cancer cell line); test: in vitro growth inhibition of tumor cells, BGC-823; assay type: cell-based; details: for Inhibition effects on in vitro growth: 48 hours
Method: (§1) The tumor strains are A-549 (human lung adenocarcinoma cell line), BGC-823 (human gastric cancer cell line), C-6 (rat neurogliocytoma cell line), Hep G2 (human hepatic cancer cell line), HL-60 (human leukemia cell line), K-562 (human erythremia cell line) and Hela (human cervical cancer cell line). […] The drug was prepared as a stock solution of 10^−2 M by using physiological saline and diluted into the test solution in a gradient composed of five concentrations: C1 5×10^−5 M, C2 10^−5 M, C3 10^−6 M, C4 10^−7 M and C5 10^−8 M.
(§2) Experimental method: different tumor cells in exponential growth phase are inoculated in 96-well plates in a certain amount and the selected samples are added after the cells are cultured for 24 hours (suspension cells can be directly added after being inoculated), after the cells are incubated at 37° C. and 5% CO2 for another 48 hours, […] is added for further incubation for another 4 hours, and finally the samples are examined on a microplate reader after dissolving with DMSO.

[3] = system: K-562 (human erythremia cell line); test: in vitro growth inhibition of tumor cells, K-562; assay type: cell-based; details: for Inhibition effects on in vitro growth: K562, 48 hours
Method: as §1, §2

[4] = H460 nude mice, 8 mg/kg iv three times a week, 9 times

Compound: COc1cc([C@@H]2c3cc4c(cc3C[C@H]3COC(=O)[C@@H]32)OCO4)cc(OC)c1OC [DPT, Deoxypodophyllotoxin]
- Tumor volume ([1]; 2 mg/kg iv, 0 d): 296 ± 117 mm^3
- RTV ([1]; 2 mg/kg iv, 2 d): 1.396 ± 0.251
- T/C ([1]; 2 mg/kg iv, 2 d): 86.85%
- Tumor volume ([1]; 2 mg/kg iv, 2 d): 427 ± 190 mm^3
- RTV ([1]; 2 mg/kg iv, 4 d): 1.827 ± 0.373
- T/C ([1]; 2 mg/kg iv, 4 d): 69.97%
- Tumor volume ([1]; 2 mg/kg iv, 4 d): 554 ± 234 mm^3
- RTV ([1]; 2 mg/kg iv, 6 d): 2.391 ± 0.764
- T/C ([1]; 2 mg/kg iv, 6 d): 78.07%
- Tumor volume ([1]; 2 mg/kg iv, 6 d): 729 ± 364 mm^3
- RTV ([1]; 2 mg/kg iv, 8 d): 2.819 ± 0.559
- T/C ([1]; 2 mg/kg iv, 8 d): 64.20%
- Tumor volume ([1]; 2 mg/kg iv, 8 d): 807 ± 294 mm^3
- Gross tumor volume ([1]; 2 mg/kg iv, 10 d): 1039 ± 316 mm^3
- RTV ([1]; 2 mg/kg iv, 10 d): 3.750 ± 1.015
- T/C ([1]; 2 mg/kg iv, 10 d): 74.96%
- Gross tumor volume ([1]; 2 mg/kg iv, 12 d): 1424 ± 511 mm^3
- RTV ([1]; 2 mg/kg iv, 12 d): 5.122 ± 1.538
- T/C ([1]; 2 mg/kg iv, 12 d): 68.96%
- RTV ([1]; 2 mg/kg iv, 14 d): 6.698 ± 2.532
- T/C ([1]; 2 mg/kg iv, 14 d): 78.93%
- Tumor volume ([1]; 2 mg/kg iv, 14 d): 1777 ± 386 mm^3
- RTV ([1]; 2 mg/kg iv, 16 d): 8.626 ± 3.791
- T/C ([1]; 2 mg/kg iv, 16 d): 86.49%
- Tumor volume ([1]; 2 mg/kg iv, 16 d): 2249 ± 394 mm^3
- RTV ([1]; 2 mg/kg iv, 18 d): 8.825 ± 3.701
- T/C ([1]; 2 mg/kg iv, 18 d): 78.31%
- Tumor volume ([1]; 2 mg/kg iv, 18 d): 2304 ± 405 mm^3
- RTV ([1]; 2 mg/kg iv, 21 d): 9.776 ± 3.452
- T/C ([1]; 2 mg/kg iv, 21 d): 84.89%
- Tumor volume ([1]; 2 mg/kg iv, 21 d): 2591 ± 412 mm^3
- Tumor volume ([1]; 4 mg/kg iv, 0 d): 272 ± 131 mm^3
- RTV ([1]; 4 mg/kg iv, 2 d): 1.324 ± 0.236
- T/C ([1]; 4 mg/kg iv, 2 d): 82.37%
- Tumor volume ([1]; 4 mg/kg iv, 2 d): 381 ± 234 mm^3
- RTV ([1]; 4 mg/kg iv, 4 d): 1.823 ± 0.427
- T/C ([1]; 4 mg/kg iv, 4 d): 69.82%
- Tumor volume ([1]; 4 mg/kg iv, 4 d): 521 ± 288 mm^3
- RTV ([1]; 4 mg/kg iv, 6 d): 2.465 ± 0.699
- T/C ([1]; 4 mg/kg iv, 6 d): 80.49%
- Tumor volume ([1]; 4 mg/kg iv, 6 d): 729 ± 471 mm^3
- RTV ([1]; 4 mg/kg iv, 8 d): 3.331 ± 0.641
- T/C ([1]; 4 mg/kg iv, 8 d): 75.85%
- Tumor volume ([1]; 4 mg/kg iv, 8 d): 906 ± 434 mm^3
- Gross tumor volume ([1]; 4 mg/kg iv, 10 d): 1052 ± 475 mm^3
- RTV ([1]; 4 mg/kg iv, 10 d): 4.041 ± 1.493
- T/C ([1]; 4 mg/kg iv, 10 d): 80.78%
- Gross tumor volume ([1]; 4 mg/kg iv, 12 d): 1261 ± 586 mm^3
- RTV ([1]; 4 mg/kg iv, 12 d): 4.780 ± 1.070
- T/C ([1]; 4 mg/kg iv, 12 d): 64.35%
- RTV ([1]; 4 mg/kg iv, 14 d): 5.954 ± 1.425
- T/C ([1]; 4 mg/kg iv, 14 d): 70.16%
- Tumor volume ([1]; 4 mg/kg iv, 14 d): 1530 ± 572 mm^3
- RTV ([1]; 4 mg/kg iv, 16 d): 6.870 ± 1.613
- T/C ([1]; 4 mg/kg iv, 16 d): 68.88%
- Tumor volume ([1]; 4 mg/kg iv, 16 d): 1740 ± 637 mm^3
- RTV ([1]; 4 mg/kg iv, 18 d): 7.697 ± 2.279
- T/C ([1]; 4 mg/kg iv, 18 d): 68.30%
- Tumor volume ([1]; 4 mg/kg iv, 18 d): 1891 ± 664 mm^3
- RTV ([1]; 4 mg/kg iv, 21 d): 7.832 ± 1.816
- T/C ([1]; 4 mg/kg iv, 21 d): 68.01%
- Tumor volume ([1]; 4 mg/kg iv, 21 d): 1945 ± 586 mm^3
- Tumor volume ([1]; 8 mg/kg iv, 0 d): 247 ± 108 mm^3
- RTV ([1]; 8 mg/kg iv, 2 d): 1.248 ± 0.113
- T/C ([1]; 8 mg/kg iv, 2 d): 77.61%
- Tumor volume ([1]; 8 mg/kg iv, 2 d): 313 ± 151 mm^3
- RTV ([1]; 8 mg/kg iv, 4 d): 1.721 ± 0.287
- T/C ([1]; 8 mg/kg iv, 4 d): 65.92%
- Tumor volume ([1]; 8 mg/kg iv, 4 d): 430 ± 196 mm^3
- RTV ([1]; 8 mg/kg iv, 6 d): 2.403 ± 0.652
- T/C ([1]; 8 mg/kg iv, 6 d): 78.45%
- Tumor volume ([1]; 8 mg/kg iv, 6 d): 559 ± 179 mm^3
- RTV ([1]; 8 mg/kg iv, 8 d): 2.747 ± 0.766
- T/C ([1]; 8 mg/kg iv, 8 d): 62.55%
- Tumor volume ([1]; 8 mg/kg iv, 8 d): 635 ± 183 mm^3
- Gross tumor volume ([1]; 8 mg/kg iv, 10 d): 895 ± 252 mm^3
- RTV ([1]; 8 mg/kg iv, 10 d): 3.853 ± 0.732
- T/C ([1]; 8 mg/kg iv, 10 d): 77.03%
- Gross tumor volume ([1]; 8 mg/kg iv, 12 d): 1034 ± 246 mm^3
- RTV ([1]; 8 mg/kg iv, 12 d): 4.548 ± 1.106
- T/C ([1]; 8 mg/kg iv, 12 d): 61.23%
- RTV ([1]; 8 mg/kg iv, 14 d): 4.845 ± 1.330
- T/C ([1]; 8 mg/kg iv, 14 d): 57.10%
- Tumor volume ([1]; 8 mg/kg iv, 14 d): 1122 ± 368 mm^3
- RTV ([1]; 8 mg/kg iv, 16 d): 4.955 ± 1.786
- T/C ([1]; 8 mg/kg iv, 16 d): 49.68%
- Tumor volume ([1]; 8 mg/kg iv, 16 d): 1132 ± 397 mm^3
- RTV ([1]; 8 mg/kg iv, 18 d): 5.609 ± 1.197
- T/C ([1]; 8 mg/kg iv, 18 d): 49.77%
- Tumor volume ([1]; 8 mg/kg iv, 18 d): 1292 ± 340 mm^3
- RTV ([1]; 8 mg/kg iv, 21 d): 5.721 ± 0.925
- T/C ([1]; 8 mg/kg iv, 21 d): 49.68%
- Tumor volume ([1]; 8 mg/kg iv, 21 d): 1375 ± 558 mm^3
- Initial body weight ([1]; H460 nude mice, 2 mg/kg iv group): 22.50 ± 1.38 g
- Ending body weight ([1]; H460 nude mice, 2 mg/kg iv): 25.32 ± 2.25 g
- Tumor weight ([1]; H460 nude mice, 2 mg/kg iv): 2.94 ± 0.68 g
- Tumor-inhibition rate ([1]; H460 nude mice, 2 mg/kg iv): 9.49%
- Initial body weight ([1]; H460 nude mice, 4 mg/kg iv group): 23.33 ± 2.25 g
- Ending body weight ([1]; H460 nude mice, 4 mg/kg iv): 23.32 ± 2.08 g
- Tumor weight ([1]; H460 nude mice, 4 mg/kg iv): 2.52 ± 0.92 g
- Tumor-inhibition rate ([1]; H460 nude mice, 4 mg/kg iv): 22.56%
- Initial body weight ([1]; H460 nude mice, 8 mg/kg iv group): 22.33 ± 1.51 g
- Ending body weight [1, 4]: 22.55 ± 2.50 g
- Tumor weight [1, 4]: 1.85 ± 0.95 g
- Tumor-inhibition rate [1, 4]: 43.08%
- effects on the body weight of the animals ([1]; H460 nude mice, dosage groups of DPT (8, 4, 2 mg/kg iv)): no significant inhibition effects on the body weight of the animals
- in vitro inhibition effects (human lung cancer A-549): in vitro inhibition effects
- Inhibition effects on in vitro growth ([2]; 5 × 10^−5M): 52.54%
- Inhibition effects on in vitro growth ([2]; 10^−5M): 35.31%
- inhibition effects compared with Etoposide ([2]; 10^−5 to 10^−8 M): significant better than that of Etoposide
- Inhibition effects on in vitro growth ([2]; 10^−6M): 33.2%
- Inhibition effects on in vitro growth ([2]; 10^−7M): 30.35%
- Inhibition effects on in vitro growth ([2]; 10^−8M): 24.49%
- Inhibition effects on in vitro growth ([3]; 5 × 10^−5M): 67.05%
- Inhibition effects on in vitro growth ([3]; 10^−5M): 54.02%
- Inhibition effects on in vitro growth ([3]; 10^−6M): 50.95%
- Inhibition effects on in vitro growth ([3]; 10^−7M): 43.77%
- Inhibition effects on in vitro growth ([3]; 10^−8M): 35.82%
- inhibition effects compared with Etoposide ([3]; K-562, 10^−5 to 10^−8 M): significant better than that of Etoposide
